Measured values published in the supplement of paper PMC10627819.

Tests used:
S. aureus DSM 20231 [1] = experiment: Bliss interaction score (quartile over a dose matrix) (fitness difference); higher = more antagonism (negative = synergy)
Method in brief: (§1)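 Combination data were used to infer fitness under each single drug. Fitness is the OD595 at entry into stationary phase divided by the robust mean of the plate's no-drug wells, with a cap of 1. The Bliss score is the observed minus the expected product fitness, summarised by quartiles over technical, biological and donor/recipient replicates.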

B. subtilis 168 = experiment: as above
Method in brief: as §1

S. pneumoniae D39V [2] = experiment: as above
Method in brief: as §1

S. aureus Newman [3] = experiment: as above
Method in brief: as §1

S. aureus DSM 20231 [4] = experiment: fitness (endpoint OD595 vs no drug) (fraction); higher = more growth
Method in brief: (§2)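 Each well of a 384-well plate received 30 µl of culture at OD595 0.01, or 55 µl for S. pneumoniae. TSB, LB Lennox or CY served as media at 37 °C. OD595 was taken every 30 min for 14 h and corrected by subtracting the first reading. Fitness is the optical density at stationary-phase entry divided by the robust mean of no-drug controls, capped at 1.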

S. pneumoniae D39V [5] = experiment: as above
Method in brief: as §2

S. aureus Newman [6] = experiment: as above
Method in brief: as §2

[7] = first compound 0.39 µg/mL, partner 0.0625 µg/mL
[8] = first compound 0.39 µg/mL, partner 0.125 µg/mL
[9] = first compound 0.39 µg/mL, partner 0.25 µg/mL
[10] = first compound 0.78 µg/mL, partner 0.0625 µg/mL
[11] = first compound 0.78 µg/mL, partner 0.125 µg/mL
[12] = first compound 0.78 µg/mL, partner 0.25 µg/mL
[13] = first compound 1.56 µg/mL, partner 0.0625 µg/mL
[14] = first compound 1.56 µg/mL, partner 0.25 µg/mL
[15] = first compound 0.625 µg/mL, partner 0.1875 µg/mL
[16] = first compound 0.625 µg/mL, partner 0.375 µg/mL
[17] = first compound 0.625 µg/mL, partner 0.75 µg/mL
[18] = first compound 1.25 µg/mL, partner 0.1875 µg/mL
[19] = first compound 1.25 µg/mL, partner 0.375 µg/mL
[20] = first compound 1.25 µg/mL, partner 0.75 µg/mL
[21] = first compound 2.5 µg/mL, partner 0.1875 µg/mL
[22] = first compound 2.5 µg/mL, partner 0.375 µg/mL
[23] = first compound 2.5 µg/mL, partner 0.75 µg/mL
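Wherever Bliss interaction score (quartile over a dose matrix) is given: first quartile when negative (synergy) and third quartile when positive (antagonism).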

Structure (SMILES): COc1ccc(C[C@H](N)C(=O)N[C@H]2[C@@H](O)[C@H](n3cnc4c(N(C)C)ncnc43)O[C@@H]2CO)cc1 [Puromycin] + Cn1nnc(-c2ccc(-c3ccc(N4C[C@H](CO)OC4=O)cc3F)cn2)n1 [Tedizolid]
- Bliss interaction score (S. aureus DSM 20231 [1]): -0.0959
- Bliss interaction score (B. subtilis 168): -0.0598
- Bliss interaction score (S. pneumoniae D39V [2]): -0.1
- Bliss interaction score (S. aureus Newman [3]): 0.0352
- fitness (S. aureus DSM 20231 [4]; [7]): 0.879
- fitness (S. aureus DSM 20231 [4]; [8]): 0.7
- fitness (S. aureus DSM 20231 [4]; [9]): 0.24
- fitness (S. aureus DSM 20231 [4]; [10]): 0.831
- fitness (S. aureus DSM 20231 [4]; [11]): 0.794
- fitness (S. aureus DSM 20231 [4]; [12]): 0.267
- fitness (S. aureus DSM 20231 [4]; [13]): 0.827
- fitness (S. aureus DSM 20231 [4]; [14]): 0.157
- fitness (S. aureus DSM 20231 [4]; first compound 3.12 µg/mL, partner 0.0625 µg/mL, one replicate): 0.503
- fitness (S. aureus DSM 20231 [4]; first compound 3.12 µg/mL, partner 0.125 µg/mL, one replicate): 0.148
- fitness (S. aureus DSM 20231 [4]; first compound 3.12 µg/mL, partner 0.25 µg/mL, one replicate): 0.0225
- fitness (S. aureus DSM 20231 [4]; first compound 6.24 µg/mL, partner 0.0625 µg/mL, one replicate): 0.224
- fitness (S. aureus DSM 20231 [4]; first compound 6.24 µg/mL, partner 0.125 µg/mL, one replicate): 0.0566
- fitness (S. aureus DSM 20231 [4]; first compound 6.24 µg/mL, partner 0.25 µg/mL, one replicate): 0.0172
- fitness (S. pneumoniae D39V [5]; first compound 1 µg/mL, partner 0.03125 µg/mL): 0.967
- fitness (S. pneumoniae D39V [5]; first compound 1 µg/mL, partner 0.0625 µg/mL): 0.966
- fitness (S. pneumoniae D39V [5]; first compound 1 µg/mL, partner 0.125 µg/mL): 0.787
- fitness (S. pneumoniae D39V [5]; first compound 1 µg/mL, partner 0.25 µg/mL, one replicate): 0.652
- fitness (S. pneumoniae D39V [5]; first compound 1 µg/mL, partner 0.5 µg/mL, one replicate): 0.184
- fitness (S. pneumoniae D39V [5]; first compound 2 µg/mL, partner 0.03125 µg/mL): 0.958
- fitness (S. pneumoniae D39V [5]; first compound 2 µg/mL, partner 0.0625 µg/mL): 0.935
- fitness (S. pneumoniae D39V [5]; first compound 2 µg/mL, partner 0.125 µg/mL): 0.78
- fitness (S. pneumoniae D39V [5]; first compound 2 µg/mL, partner 0.25 µg/mL, one replicate): 0.686
- fitness (S. pneumoniae D39V [5]; first compound 2 µg/mL, partner 0.5 µg/mL, one replicate): 0.284
- fitness (S. pneumoniae D39V [5]; first compound 4 µg/mL, partner 0.03125 µg/mL): 0.819
- fitness (S. pneumoniae D39V [5]; first compound 4 µg/mL, partner 0.0625 µg/mL): 0.828
- fitness (S. pneumoniae D39V [5]; first compound 4 µg/mL, partner 0.125 µg/mL): 0.756
- fitness (S. pneumoniae D39V [5]; first compound 4 µg/mL, partner 0.25 µg/mL, one replicate): 0.499
- fitness (S. pneumoniae D39V [5]; first compound 4 µg/mL, partner 0.5 µg/mL, one replicate): 0.234
- fitness (S. aureus Newman [6]; [7]): 0.987
- fitness (S. aureus Newman [6]; [8]): 0.884
- fitness (S. aureus Newman [6]; [9]): 0.479
- fitness (S. aureus Newman [6]; [10]): 0.935
- fitness (S. aureus Newman [6]; [11]): 0.834
- fitness (S. aureus Newman [6]; [12]): 0.404
- fitness (S. aureus Newman [6]; [13]): 0.942
- fitness (S. aureus Newman [6]; first compound 1.56 µg/mL, partner 0.125 µg/mL): 0.829
- fitness (S. aureus Newman [6]; [14]): 0.304

Structure (SMILES): Cc1ncc([N+](=O)[O-])n1CCO [Metronidazole] + CN[C@H](CC(C)C)C(=O)N[C@H]1C(=O)N[C@@H](CC(N)=O)C(=O)N[C@H]2C(=O)N[C@H]3C(=O)N[C@H](C(=O)N[C@H](C(=O)O)c4cc(O)cc(O)c4-c4cc3ccc4O)[C@H](O)c3ccc(c(Cl)c3)Oc3cc2cc(c3O[C@@H]2O[C@H](CO)[C@@H](O)[C@H](O)[C@H]2O[C@H]2C[C@](C)(N)[C@H](O)[C@H](C)O2)Oc2ccc(cc2Cl)[C@H]1O [Vancomycin]
- Bliss interaction score (S. aureus DSM 20231 [1]): 0.033
- Bliss interaction score (B. subtilis 168): 0.0651
- Bliss interaction score (S. pneumoniae D39V [2]): 0.123
- Bliss interaction score (S. aureus Newman [3]): 0.0696
- fitness (S. aureus DSM 20231 [4]; [15]): ≥ 1
- fitness (S. aureus DSM 20231 [4]; [16]): ≥ 1
- fitness (S. aureus DSM 20231 [4]; [17]): ≥ 1
- fitness (S. aureus DSM 20231 [4]; [18]): ≥ 1
- fitness (S. aureus DSM 20231 [4]; [19]): ≥ 1
- fitness (S. aureus DSM 20231 [4]; [20]): ≥ 1
- fitness (S. aureus DSM 20231 [4]; [21]): ≥ 1
- fitness (S. aureus DSM 20231 [4]; [22]): 1
- fitness (S. aureus DSM 20231 [4]; [23]): 0.995
- fitness (S. pneumoniae D39V [5]; first compound 1.073 µg/mL, partner 0.125 µg/mL): ≥ 1
- fitness (S. pneumoniae D39V [5]; first compound 1.073 µg/mL, partner 0.5 µg/mL): 0.0194
- fitness (S. pneumoniae D39V [5]; first compound 1.25 µg/mL, partner 0.03125 µg/mL): 0.992
- fitness (S. pneumoniae D39V [5]; first compound 1.25 µg/mL, partner 0.0625 µg/mL): 0.959
- fitness (S. pneumoniae D39V [5]; first compound 1.25 µg/mL, partner 0.125 µg/mL): 0.825
- fitness (S. pneumoniae D39V [5]; first compound 2.145 µg/mL, partner 0.125 µg/mL): 0.895
- fitness (S. pneumoniae D39V [5]; first compound 2.145 µg/mL, partner 0.5 µg/mL): 0.0439
- fitness (S. pneumoniae D39V [5]; first compound 2.5 µg/mL, partner 0.03125 µg/mL): ≥ 1
- fitness (S. pneumoniae D39V [5]; first compound 2.5 µg/mL, partner 0.0625 µg/mL): 0.966
- fitness (S. pneumoniae D39V [5]; first compound 2.5 µg/mL, partner 0.125 µg/mL): 0.807
- fitness (S. pneumoniae D39V [5]; first compound 4.29 µg/mL, partner 0.125 µg/mL): ≥ 1
- fitness (S. pneumoniae D39V [5]; first compound 4.29 µg/mL, partner 0.5 µg/mL): 0.108
- fitness (S. pneumoniae D39V [5]; first compound 5 µg/mL, partner 0.03125 µg/mL): 0.986
- fitness (S. pneumoniae D39V [5]; first compound 5 µg/mL, partner 0.0625 µg/mL): 0.938
- fitness (S. pneumoniae D39V [5]; first compound 5 µg/mL, partner 0.125 µg/mL): 0.792
- fitness (S. aureus Newman [6]; [15]): 0.987
- fitness (S. aureus Newman [6]; [16]): ≥ 1
- fitness (S. aureus Newman [6]; [17]): ≥ 1
- fitness (S. aureus Newman [6]; first compound 0.781 µg/mL, partner 0.1875 µg/mL, one replicate): ≥ 1
- fitness (S. aureus Newman [6]; first compound 0.781 µg/mL, partner 0.375 µg/mL, one replicate): ≥ 1
- fitness (S. aureus Newman [6]; first compound 0.781 µg/mL, partner 0.75 µg/mL, one replicate): ≥ 1
- fitness (S. aureus Newman [6]; [18]): 0.968
- fitness (S. aureus Newman [6]; [19]): ≥ 1
- fitness (S. aureus Newman [6]; [20]): 0.953
- fitness (S. aureus Newman [6]; first compound 1.562 µg/mL, partner 0.1875 µg/mL, one replicate): ≥ 1
- fitness (S. aureus Newman [6]; first compound 1.562 µg/mL, partner 0.375 µg/mL, one replicate): 0.995
- fitness (S. aureus Newman [6]; first compound 1.562 µg/mL, partner 0.75 µg/mL, one replicate): 0.99
- fitness (S. aureus Newman [6]; [21]): ≥ 1
- fitness (S. aureus Newman [6]; [22]): ≥ 1
- fitness (S. aureus Newman [6]; [23]): ≥ 1
- fitness (S. aureus Newman [6]; first compound 3.124 µg/mL, partner 0.1875 µg/mL, one replicate): 0.995
- fitness (S. aureus Newman [6]; first compound 3.124 µg/mL, partner 0.375 µg/mL, one replicate): 0.99
- fitness (S. aureus Newman [6]; first compound 3.124 µg/mL, partner 0.75 µg/mL, one replicate): ≥ 1
